US20170226518A1, “COMPOSITIONS AND METHODS FOR TREATING CANCER” (Autotelic LLC, priority 2016, published 2017)
In the oligonucleotide strings, read from the 5' end, every base follows the letter of its sugar. An asterisk marks phosphorothioate; unmarked linkages are phosphodiester. Other units and linkages are bracketed, terminal groups are in braces. A string of capitals states the bases alone. d = 2'-deoxy (DNA)

Legend:
[1] = Acute single dose toxicity study in mice; type: in vivo; conditions: 1 of 10 mice died (LLD10)
Procedure: The clinical starting dose for the 7-days-on and 7-days-off schedule was based on the Lowest-Observed-Adverse-Effect-Level (LOAEL) devoid of severe toxicity in Cynomolgus monkeys as the most relevant species. This LOAEL of 4 mg/kg body weight (b.w.)/day is equivalent to approximately 1.3 mg/kg b.w./day or 48 mg/m^2/day on a body surface area basis in human adults. These numbers were rounded down and the safe starting dose was defined at 40 mg/m^2/day, equivalent to approximately 1 mg/kg b.w./day in humans. An alternative approach would have been based on the lowest lethal dose (LLD) of 300 mg/kg b.w. obtained in the acute single dose toxicity study in mice (in rats it was determined at 1000 mg/kg), at which 1 of 10 mice died (LLD10). According to the standard method, 10% of this dose (30 mg/kg) on a body surface area basis would then be defined as the clinical starting dose resulting in 90 mg/m^2/day. In the end, the lower of the two alternatives was chosen as starting dose.

[2] = test system: HUP-T3 pancreatic cancer cells; assay: Cellular proliferation of HUP-T3 pancreatic cancer cells in vitro; type: cell-based; conditions: 10 μM AP12009 as monotherapy
Procedure: (§1) The aim of the study was to determine the effect of AP12009 (trabedersen) treatment in combination with 5-Fluorouracil (5-FU) on TGFβ2 secretion and on cellular proliferation of HUP-T3 pancreatic cancer cells and WiDr colon cancer cells in vitro.
(§2) 10 μM of AP12009 as monotherapy decreased cell proliferation (53% proliferation of untreated control) and TGFβ2 expression (42% of untreated control) in HUP-T3 cells.

TGFβ2 = TGFβ2 secretion/expression in HUP-T3 pancreatic cancer cells; type: cell-based; conditions: 10 μM AP12009 as monotherapy
Procedure: as §1, §2

For “trabedersen: TGFβ2 specific phosphorothioate antisense oligodeoxynucleotide with the sequence 5′-CGGCATGTCTATTTTGTA-3′ (SEQ ID No: 1) (antisense dC*dG*dG*dC*dA*dT*dG*dT*dC*dT*dA*dT*dT*dT*dT*dG*dT*dA)”, the “lowest lethal dose (LLD)” value [1] was 300 mg/kg b.w, the “cell proliferation (% proliferation of untreated control)” value [2] was 53% and the “TGFβ2 expression (% of untreated control)” value (TGFβ2) was 42%.
